Values of other authors, collected in patent US20200317616A1, “Crystalline Form of Betrixaban Maleate” (Apotex Inc., priority 2019, published 2020).
Where a name gives a salt, the structure may show the parent alone.

Legend:
[1] = labelling of BEVYXXA
[2] = anhydrous form, CDER review NDA 208383
[3] = anhydrous form, CDER review NDA 208383; remark: listed apart in the source

| oral bioavailability [1] | permeability [2] | solubility [3] | SMILES |
| --- | --- | --- | --- |
| 34% | – | – | COc1ccc(NC(=O)c2ccc(C(=N)N(C)C)cc2)c(C(=O)Nc2ccc(Cl)cn2)c1 [Betrixaban, N-(5-chloropyridin-2-yl)-2-[4-(N,N-dimethylcarbamimidoyl)-benzoylamino]-5-methoxybenzamide] |
| – | low | high | COc1ccc(NC(=O)c2ccc(C(=N)N(C)C)cc2)c(C(=O)Nc2ccc(Cl)cn2)c1 [Betrixaban maleate] |
